“And” between values parts separate entries of the source, which are not always exact repeats. Equal values may be shown once.
Assay: cn = amount concentration of the nth substance listed, in mol/dm3
Conditions: 298.15 K, 101 kPa, Liquid

O=[As](O)(O)O [arsenic acid] + O
binary diffusion coefficient (c1 = 0.000125): 1.5e-09 m2/s and 1.49e-09 m2/s | binary diffusion coefficient (c1 = 0.000407): 1.41e-09 m2/s | binary diffusion coefficient (c1 = 0.000837): 1.35e-09 m2/s | binary diffusion coefficient (c1 = 0.00101): 1.33e-09 m2/s and 1.32e-09 m2/s | binary diffusion coefficient (c1 = 0.00206): 1.24e-09 m2/s | binary diffusion coefficient (c1 = 0.00251): 1.21e-09 m2/s | binary diffusion coefficient (c1 = 0.00351): 1.17e-09 m2/s | binary diffusion coefficient (c1 = 0.00471): 1.13e-09 m2/s and 1.14e-09 m2/s | binary diffusion coefficient (c1 = 0.00506): 1.12e-09 m2/s | binary diffusion coefficient (c1 = 0.00701): 1.08e-09 m2/s and 1.09e-09 m2/s | binary diffusion coefficient (c1 = 0.00825): 1.08e-09 m2/s and 1.07e-09 m2/s | binary diffusion coefficient (c1 = 0.0119): 1.03e-09 m2/s and 1.04e-09 m2/s | binary diffusion coefficient (c1 = 0.014): 1.02e-09 m2/s

O=C(O)CC(=O)O [propanedioic acid] + O
binary diffusion coefficient (c1 = 0.000124): 1.67e-09 m2/s and 1.68e-09 m2/s | binary diffusion coefficient (c1 = 0.000252): 1.59e-09 m2/s and 1.61e-09 m2/s and 1.6e-09 m2/s | binary diffusion coefficient (c1 = 0.000253): 1.61e-09 m2/s and 1.6e-09 m2/s and 1.59e-09 m2/s | binary diffusion coefficient (c1 = 0.000378): 1.53e-09 m2/s and 1.52e-09 m2/s | binary diffusion coefficient (c1 = 0.000379): 1.52e-09 m2/s | binary diffusion coefficient (c1 = 0.000502): 1.49e-09 m2/s | binary diffusion coefficient (c1 = 0.000627): 1.46e-09 m2/s and 1.45e-09 m2/s | binary diffusion coefficient (c1 = 0.000751): 1.42e-09 m2/s | binary diffusion coefficient (c1 = 0.000803): 1.4e-09 m2/s | binary diffusion coefficient (c1 = 0.00138): 1.32e-09 m2/s and 1.33e-09 m2/s | binary diffusion coefficient (c1 = 0.0019): 1.27e-09 m2/s | binary diffusion coefficient (c1 = 0.0025): 1.23e-09 m2/s and 1.22e-09 m2/s | binary diffusion coefficient (c1 = 0.0035): 1.19e-09 m2/s and 1.18e-09 m2/s | binary diffusion coefficient (c1 = 0.00454): 1.16e-09 m2/s | binary diffusion coefficient (c1 = 0.0046): 1.14e-09 m2/s and 1.15e-09 m2/s and 1.16e-09 m2/s | binary diffusion coefficient (c1 = 0.00701): 1.11e-09 m2/s | binary diffusion coefficient (c1 = 0.0101): 1.08e-09 m2/s | binary diffusion coefficient (c1 = 0.0118): 1.07e-09 m2/s and 1.08e-09 m2/s | binary diffusion coefficient (c1 = 0.015): 1.06e-09 m2/s and 1.07e-09 m2/s and 1.05e-09 m2/s | binary diffusion coefficient (c1 = 0.0201): 1.03e-09 m2/s
